Test results published in patent publication US9850287B2, “Means and methods for breaking noncovalent binding interactions between molecules” (Het Nederlands Kanker Instituut, priority 2005, dated 2017).

Experiments:
[1] = system: CD8+ lymphocytes in peripheral blood mononuclear cells of a CMV-positive donor; assay type: cell-based
HLA-A2.1 = target: T1, HLA-A2.1 (Homo sapiens, UniProt P04439, D140Y/D185E/D98H/E176V/E277Q/G131W/G231S/I119V/I121R/I166T/I218V/N151K/N90K/P208A/P217A/Q86G/Q94H/R138H/R169H); assay type: binding
T1 construct: made in house

Substance	staining of CD8+ T-cells by exchange-generated MHC tetramers [1]	recovery of UV-sensitive MHC multimer upon addition of peptide (HLA-A2.1)
CMV pp65 495-503: CMV pp65 495-503 epitope peptide (NLVPMVATV; UniProt P06725 495-503, looked up, fragment)	detect CMV-specific T-cells at an equal frequency and with similar intensity as conventional CMV pp65 495-503-specific MHC tetramers	
GP100 (614-622): HLA-A3-binding peptide, control not expected to interact with HLA-A2.1 (LIYRRRLMK)		does not lead to a substantial increase in the recovery
HY 311-319: HLA-A2.1-binding peptide (FIDSYICQV)	do not show measurable binding	highly increased recovery
MART I 26-35 (A2L mutant)	do not show measurable binding	
